Common to all, as to experiment: PubChem AID 651979
The test system of assay [1] is ABHD10. Particulars: HEK293T SILAC ABPP, NHU5 probe, LC-MS/MS ratio, at 5 µM, stronger effect = lower value.
Assay [2] concerns ABHD6. The settings on record: HEK293T SILAC ABPP, NHU5 probe, LC-MS/MS ratio, at 5 µM, stronger effect = lower value.
Assay [3] has as its system DDHD1. Particulars: HEK293T SILAC ABPP, NHU5 probe, LC-MS/MS ratio, at 5 µM, stronger effect = lower value.
The test system of assay [4] is PNPLA6. The settings on record: HEK293T SILAC ABPP, NHU5 probe, LC-MS/MS ratio, at 5 µM, stronger effect = lower value.
Assay [5] has as its system PREP. Particulars: HEK293T SILAC ABPP, NHU5 probe, LC-MS/MS ratio, at 5 µM, stronger effect = lower value.
Assay [6] deals with ESD. The settings on record: HEK293T SILAC ABPP, NHU5 probe, LC-MS/MS ratio, at 5 µM, stronger effect = lower value.
In assay [7] the test system is TPP2. Particulars: HEK293T SILAC ABPP, NHU5 probe, LC-MS/MS ratio, at 5 µM, stronger effect = lower value.
Assay [8] deals with Dipeptidyl peptidase 9 (Homo sapiens) (UniProt Q86TI2). Particulars: HEK293T SILAC ABPP, NHU5 probe, LC-MS/MS ratio; DPP9; at 5 µM; stronger effect = lower value.
Sequence of Dipeptidyl peptidase 9 (Homo sapiens) (Q86TI2 whole entry, looked up): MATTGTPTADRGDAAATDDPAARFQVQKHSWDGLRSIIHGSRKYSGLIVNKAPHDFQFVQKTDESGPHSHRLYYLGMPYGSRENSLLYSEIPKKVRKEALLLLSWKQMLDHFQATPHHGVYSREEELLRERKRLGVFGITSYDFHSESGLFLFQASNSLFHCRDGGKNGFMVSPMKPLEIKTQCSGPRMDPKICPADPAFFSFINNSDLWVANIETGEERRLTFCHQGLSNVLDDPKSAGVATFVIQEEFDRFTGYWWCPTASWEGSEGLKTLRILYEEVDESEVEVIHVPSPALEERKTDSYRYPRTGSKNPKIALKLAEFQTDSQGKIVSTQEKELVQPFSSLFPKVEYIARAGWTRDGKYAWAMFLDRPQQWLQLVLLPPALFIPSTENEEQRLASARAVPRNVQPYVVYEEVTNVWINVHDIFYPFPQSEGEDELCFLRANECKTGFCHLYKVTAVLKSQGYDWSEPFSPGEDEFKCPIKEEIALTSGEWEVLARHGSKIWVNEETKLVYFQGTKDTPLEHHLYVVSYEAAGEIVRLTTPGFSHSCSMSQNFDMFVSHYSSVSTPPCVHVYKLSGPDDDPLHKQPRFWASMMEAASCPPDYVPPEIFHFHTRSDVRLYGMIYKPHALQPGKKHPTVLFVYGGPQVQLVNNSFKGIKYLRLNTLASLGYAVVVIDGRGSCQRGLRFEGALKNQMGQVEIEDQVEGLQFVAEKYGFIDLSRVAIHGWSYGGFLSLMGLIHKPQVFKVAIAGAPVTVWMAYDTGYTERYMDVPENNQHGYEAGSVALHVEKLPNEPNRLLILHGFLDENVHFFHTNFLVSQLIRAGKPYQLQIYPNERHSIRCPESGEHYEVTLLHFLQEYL
For assay [9], the system named is ABHD12. The settings on record: HEK293T SILAC ABPP, NHU5 probe, LC-MS/MS ratio, at 5 µM, stronger effect = lower value.
For assay [10], the target named is Acylamino-acid-releasing enzyme (Homo sapiens) (UniProt P13798). The settings on record: HEK293T SILAC ABPP, NHU5 probe, LC-MS/MS ratio; APEH; at 5 µM; stronger effect = lower value.
Sequence of Acylamino-acid-releasing enzyme (Homo sapiens) (P13798 whole entry, looked up): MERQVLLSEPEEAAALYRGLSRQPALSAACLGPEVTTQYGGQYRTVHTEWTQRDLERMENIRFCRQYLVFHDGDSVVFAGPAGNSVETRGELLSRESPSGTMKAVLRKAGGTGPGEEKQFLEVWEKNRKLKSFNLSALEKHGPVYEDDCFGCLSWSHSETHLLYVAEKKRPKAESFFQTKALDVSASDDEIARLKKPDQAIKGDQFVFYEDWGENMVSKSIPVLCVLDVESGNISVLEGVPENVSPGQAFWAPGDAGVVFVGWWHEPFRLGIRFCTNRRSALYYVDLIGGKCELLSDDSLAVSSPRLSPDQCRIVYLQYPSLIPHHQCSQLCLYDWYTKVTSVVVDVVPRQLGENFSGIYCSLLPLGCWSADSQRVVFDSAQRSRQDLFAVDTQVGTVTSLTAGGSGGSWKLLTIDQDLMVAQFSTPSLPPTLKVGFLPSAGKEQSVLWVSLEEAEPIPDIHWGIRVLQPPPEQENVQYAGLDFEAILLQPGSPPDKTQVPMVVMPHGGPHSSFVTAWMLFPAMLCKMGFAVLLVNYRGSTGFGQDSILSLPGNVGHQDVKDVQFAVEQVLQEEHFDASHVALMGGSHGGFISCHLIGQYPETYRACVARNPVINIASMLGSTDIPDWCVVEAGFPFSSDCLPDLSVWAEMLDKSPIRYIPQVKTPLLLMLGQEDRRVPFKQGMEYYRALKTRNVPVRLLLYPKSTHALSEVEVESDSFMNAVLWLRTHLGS
In assay [11] the test system is CTSA. Particulars: HEK293T SILAC ABPP, NHU5 probe, LC-MS/MS ratio, at 5 µM, stronger effect = lower value.
In assay [12] the test system is LYPLAL1. The settings on record: HEK293T SILAC ABPP, NHU5 probe, LC-MS/MS ratio, at 5 µM, stronger effect = lower value.
Assay [13] deals with PNPLA8. The settings on record: HEK293T SILAC ABPP, NHU5 probe, LC-MS/MS ratio, at 5 µM, stronger effect = lower value.
Assay [14] deals with PLA2G4A. Particulars: HEK293T SILAC ABPP, NHU5 probe, LC-MS/MS ratio, at 5 µM, stronger effect = lower value.
Assay [15] has as its target Acyl-protein thioesterase 2 (Homo sapiens) (UniProt O95372). The settings on record: HEK293T SILAC ABPP, NHU5 probe, LC-MS/MS ratio; LYPLA2; at 5 µM; stronger effect = lower value.
Assay [16] deals with Protein phosphatase methylesterase 1 (Homo sapiens) (UniProt Q9Y570). The settings on record: HEK293T SILAC ABPP, NHU5 probe, LC-MS/MS ratio; PPME1; at 5 µM; stronger effect = lower value.
Sequence of Protein phosphatase methylesterase 1 (Homo sapiens) (Q9Y570 whole entry, looked up): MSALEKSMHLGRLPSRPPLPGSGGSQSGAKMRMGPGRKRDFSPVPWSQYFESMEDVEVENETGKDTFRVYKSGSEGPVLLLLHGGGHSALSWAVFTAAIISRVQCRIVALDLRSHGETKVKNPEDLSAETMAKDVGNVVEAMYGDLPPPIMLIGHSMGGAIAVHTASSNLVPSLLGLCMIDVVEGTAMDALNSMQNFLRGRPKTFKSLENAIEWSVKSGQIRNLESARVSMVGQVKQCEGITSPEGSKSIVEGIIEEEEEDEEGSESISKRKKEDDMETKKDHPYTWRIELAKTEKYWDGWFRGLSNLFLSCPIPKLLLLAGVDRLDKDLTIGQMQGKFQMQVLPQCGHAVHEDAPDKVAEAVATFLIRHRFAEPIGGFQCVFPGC
Assay [17] has as its target Fatty acid synthase (Homo sapiens) (UniProt P49327). Particulars: HEK293T SILAC ABPP, NHU5 probe, LC-MS/MS ratio; FASN; at 5 µM; stronger effect = lower value.
For assay [18], the target named is Acyl-protein thioesterase 1 (Homo sapiens) (UniProt O75608). Particulars: HEK293T SILAC ABPP, NHU5 probe, LC-MS/MS ratio; LYPLA1; at 5 µM; stronger effect = lower value.
Sequence of Acyl-protein thioesterase 1 (Homo sapiens) (O75608 whole entry, looked up): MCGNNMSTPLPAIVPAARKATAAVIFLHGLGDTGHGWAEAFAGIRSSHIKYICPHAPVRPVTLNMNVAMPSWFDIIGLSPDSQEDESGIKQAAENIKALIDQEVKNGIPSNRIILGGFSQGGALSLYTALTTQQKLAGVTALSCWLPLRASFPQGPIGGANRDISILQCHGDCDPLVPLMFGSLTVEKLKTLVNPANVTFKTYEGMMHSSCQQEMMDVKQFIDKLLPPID

Active and inactive are the calls of the source. The rule behind the calls is not given here.

Sequence of Acyl-protein thioesterase 2 (Homo sapiens) (O95372 whole entry, looked up): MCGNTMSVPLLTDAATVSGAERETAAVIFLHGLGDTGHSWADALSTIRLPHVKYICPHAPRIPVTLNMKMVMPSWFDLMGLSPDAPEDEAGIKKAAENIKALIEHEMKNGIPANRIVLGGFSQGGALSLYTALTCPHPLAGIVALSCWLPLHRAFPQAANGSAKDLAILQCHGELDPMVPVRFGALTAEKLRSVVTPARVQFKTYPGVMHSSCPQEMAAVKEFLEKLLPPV
Sequence of Fatty acid synthase (Homo sapiens) (P49327 whole entry, looked up): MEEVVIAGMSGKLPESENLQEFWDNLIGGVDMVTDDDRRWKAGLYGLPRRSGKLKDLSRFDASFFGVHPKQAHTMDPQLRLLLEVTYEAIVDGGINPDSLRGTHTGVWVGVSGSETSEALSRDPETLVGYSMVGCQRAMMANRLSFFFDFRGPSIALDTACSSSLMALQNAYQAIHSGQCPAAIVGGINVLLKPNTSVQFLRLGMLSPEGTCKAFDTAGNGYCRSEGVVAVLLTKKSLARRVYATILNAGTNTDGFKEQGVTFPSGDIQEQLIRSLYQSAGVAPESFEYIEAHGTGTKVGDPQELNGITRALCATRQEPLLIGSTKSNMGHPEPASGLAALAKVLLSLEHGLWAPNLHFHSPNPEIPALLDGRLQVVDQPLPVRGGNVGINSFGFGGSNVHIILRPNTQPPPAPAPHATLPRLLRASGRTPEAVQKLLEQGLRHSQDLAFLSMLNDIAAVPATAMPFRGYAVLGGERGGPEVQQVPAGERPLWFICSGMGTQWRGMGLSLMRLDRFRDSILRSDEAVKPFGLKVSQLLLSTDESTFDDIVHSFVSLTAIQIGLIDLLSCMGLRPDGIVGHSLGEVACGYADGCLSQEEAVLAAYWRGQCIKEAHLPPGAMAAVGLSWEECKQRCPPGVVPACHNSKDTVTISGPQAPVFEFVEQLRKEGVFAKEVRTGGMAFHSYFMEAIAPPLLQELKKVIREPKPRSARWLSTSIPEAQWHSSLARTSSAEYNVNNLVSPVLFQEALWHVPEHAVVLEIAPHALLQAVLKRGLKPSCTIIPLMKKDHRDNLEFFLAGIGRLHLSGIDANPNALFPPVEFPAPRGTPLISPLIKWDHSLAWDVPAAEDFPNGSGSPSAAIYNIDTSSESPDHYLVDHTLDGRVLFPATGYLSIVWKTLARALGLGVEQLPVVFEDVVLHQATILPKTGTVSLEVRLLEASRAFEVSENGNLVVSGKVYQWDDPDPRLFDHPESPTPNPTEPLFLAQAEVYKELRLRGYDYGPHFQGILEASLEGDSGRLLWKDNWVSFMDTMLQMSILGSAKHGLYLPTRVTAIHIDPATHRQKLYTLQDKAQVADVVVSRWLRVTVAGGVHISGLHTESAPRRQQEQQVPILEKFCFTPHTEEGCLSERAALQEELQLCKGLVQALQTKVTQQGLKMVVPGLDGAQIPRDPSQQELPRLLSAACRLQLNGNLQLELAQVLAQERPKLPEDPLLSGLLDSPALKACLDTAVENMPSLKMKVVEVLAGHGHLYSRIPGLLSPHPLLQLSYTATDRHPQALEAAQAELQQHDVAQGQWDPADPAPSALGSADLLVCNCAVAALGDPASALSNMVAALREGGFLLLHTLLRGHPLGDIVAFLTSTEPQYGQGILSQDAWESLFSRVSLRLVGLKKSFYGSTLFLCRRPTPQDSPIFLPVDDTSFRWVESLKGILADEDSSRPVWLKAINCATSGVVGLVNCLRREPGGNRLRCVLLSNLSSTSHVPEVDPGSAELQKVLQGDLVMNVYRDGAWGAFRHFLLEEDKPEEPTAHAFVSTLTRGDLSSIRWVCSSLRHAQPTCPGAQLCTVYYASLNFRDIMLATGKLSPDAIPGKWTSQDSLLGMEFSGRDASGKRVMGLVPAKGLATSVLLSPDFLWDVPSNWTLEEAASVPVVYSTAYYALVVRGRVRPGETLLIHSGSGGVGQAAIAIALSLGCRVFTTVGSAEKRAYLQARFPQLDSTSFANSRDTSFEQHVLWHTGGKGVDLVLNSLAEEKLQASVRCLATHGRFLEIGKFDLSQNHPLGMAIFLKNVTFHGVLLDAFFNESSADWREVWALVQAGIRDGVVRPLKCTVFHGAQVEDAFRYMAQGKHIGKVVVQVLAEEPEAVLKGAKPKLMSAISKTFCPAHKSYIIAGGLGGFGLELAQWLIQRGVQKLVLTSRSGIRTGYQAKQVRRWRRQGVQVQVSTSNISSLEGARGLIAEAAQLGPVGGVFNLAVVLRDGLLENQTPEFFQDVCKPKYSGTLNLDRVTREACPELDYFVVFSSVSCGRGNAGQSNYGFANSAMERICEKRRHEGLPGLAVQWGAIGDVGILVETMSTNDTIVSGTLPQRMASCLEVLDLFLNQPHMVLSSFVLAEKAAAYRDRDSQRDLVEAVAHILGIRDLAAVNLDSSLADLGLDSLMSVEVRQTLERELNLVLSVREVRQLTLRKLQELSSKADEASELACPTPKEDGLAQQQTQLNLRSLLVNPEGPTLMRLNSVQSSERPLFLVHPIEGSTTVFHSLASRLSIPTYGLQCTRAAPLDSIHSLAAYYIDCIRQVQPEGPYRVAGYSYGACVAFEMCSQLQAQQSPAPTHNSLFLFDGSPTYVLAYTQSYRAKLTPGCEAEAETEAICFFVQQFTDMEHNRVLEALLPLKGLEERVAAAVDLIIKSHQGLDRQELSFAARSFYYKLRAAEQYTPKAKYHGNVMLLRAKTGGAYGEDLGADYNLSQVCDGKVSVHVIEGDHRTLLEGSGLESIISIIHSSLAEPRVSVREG

As to `O=C(CN1CCN(C(=O)c2ccco2)CC1)Nc1cc(C(F)(F)F)ccc1Cl`, the SILAC ratio (compound/DMSO) in assay [1] was 1.1 (inactive); in assay [2], 1.25 (inactive); in assay [3] it was 1.06 (inactive); in assay [4], 1.2 (inactive); in [5], 1.1 (inactive); in [6], 1.08 (inactive). For the same compound, the SILAC ratio (compound/DMSO) in assay [7] was 1.1 (inactive); in [8], 1.25 (inactive); in assay [9], 1.43 (inactive); in assay [10], 1.22 (inactive); in assay [11], 1.17 (inactive); in assay [12] it was 1.33 (inactive). The SILAC ratio (compound/DMSO) in [13] was 0.97 (inactive); in [14] it was 1.43 (inactive); in assay [15], 1.1 (inactive); in assay [16], 1.08 (inactive); in assay [17] it was 1.14 (inactive); in [18], 0.21.

Values taken from PubChem BioAssay AID651979 (The Scripps Research Institute Molecular Screening Center, 2013).
